Results published in EP0326329B1, “Quinazoline derivatives useful as insecticides” (Dow AgroSciences LLC, priority 1988, dated 1989).

How the values were obtained:
Format in all cases: in vivo
[1] = system: Twospotted spider mites (Tetranychus urticae Koch); experiment: Mite/insect screen, sprayed squash cotyledons (SM); conditions: Tetranychus urticae, percent mortality, read-out: SM RESULTS %; for mortality at 400 ppm: spray rate 400 ppm; for mortality at 200 ppm: spray rate 200 ppm
Method in brief: (§1)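 Acetone/alcohol (50:50) + emulsifier blends 23 g/L and 13 g/L; water dilution to test concs. Spray both leaf surfaces to runoff, dry 1 h. For armyworm, 2 excised uninfested leaves into Petri dish with larvae. Readout: % mortality, phytotoxicity.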

[2] = system: Puccinia recondita tritici (leaf rust); experiment: Greenhouse Test 1, foliar spray fungicide screen (LEAF RUST), host wheat; conditions: disease control rating, 400 ppm (+++ at 100 ppm)
[3] = system: melon aphids (Aphis gossypii Glover); experiment: Mite/insect screen, sprayed squash cotyledons (MA); conditions: Aphis gossypii, percent mortality, read-out: MA RESULTS %; for mortality at 400 ppm: spray rate 400 ppm; for mortality at 200 ppm: spray rate 200 ppm
Method in brief: as §1

[4] = system: Southern corn rootworm (Diabrotica undecimpuctata howardi Barber); experiment: Mite/insect screen, soil treatment (CRW); conditions: Diabrotica, percent mortality, soil treatment, read-out: CRW RESULTS %; for mortality at 24 ppm: CRW rate 24.00 ppm; for mortality at 12 ppm: CRW rate 12.00 ppm
Method in brief: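 Compounds dissolved in acetone/alcohol (50:50) with Toximul R/S emulsifiers, diluted with water. Soil (15 g, with presoaked corn seed) treated with 1 mL test solution, dried 6–12 h, then five 2–3 instar larvae added; held at 23°C. Percent mortality and phytotoxicity scored after standard exposure periods.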

[5] = system: Erysiphe graminis tritici (powdery mildew); experiment: Greenhouse Test 1, foliar spray fungicide screen (POWD MDEW), host wheat; conditions: disease control rating, 400 ppm (+++ at 100 ppm)
[6] = system: Pseudoperonospora cubensis (downy mildew); experiment: Greenhouse Test 1, foliar spray fungicide screen (DOWN MDEW), host squash; conditions: disease control rating, 400 ppm (+++ at 100 ppm)
[7] = system: southern armyworm (Spodopetra eridania Cramer); experiment: Mite/insect screen, sprayed squash leaves (SAW); conditions: Spodoptera eridania, percent mortality, read-out: SAW RESULTS %; for mortality at 400 ppm: spray rate 400 ppm; for mortality at 200 ppm: spray rate 200 ppm
Method in brief: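 Percent mortality and phytotoxicity are the read-outs, assessed after standard exposure periods. Test solutions, made in 50:50 acetone/alcohol with two sulfonate/nonionic emulsifier blends and diluted in water, are sprayed to runoff on both leaf surfaces, which then dry for one hour.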

[8] = system: Botrytis cinerea (gray mold); experiment: Greenhouse Test 1, foliar spray fungicide screen (GRAY MOLD), host grape berries; conditions: disease control rating, 400 ppm (+++ at 100 ppm)
[9] = system: Pyricularia oryzae (rice blast); conditions: disease control rating, foliar spray, host rice; 400 ppm (+++ at 100 ppm)

Row | Structure (SMILES) | mortality at 400 ppm [1] [%] | LEAF RUST [2] | mortality at 400 ppm [3] [%] | mortality at 24 ppm [4] [%] | POWD MDEW [5] | DOWN MDEW [6] | mortality at 400 ppm [7] [%] | GRAY MOLD [8] | RICE BLAST [9] | mortality at 200 ppm [1] [%] | mortality at 200 ppm [3] [%] | mortality at 12 ppm [4] [%] | mortality at 200 ppm [7] [%]
1 | CCC(COc1ncnc2ccccc12)c1ccc(-c2ccccc2)cc1 (centres unmarked) [Example 142, 4-[2-(1,1'-biphenyl)-4-ylbutoxy]quinazoline] | 60 | + (+ = 20-89% control at 400 ppm) | 30 | 0 | + (+ = 20-89% control at 400 ppm) | - (- = 0-19% control at 400 ppm) | 0 | - (- = 0-19% control at 400 ppm) | ++ (++ = 90-100% control at 400 ppm) |  |  |  | 
2 | CC(C)c1ccc(CCCOc2ncnc3ccccc23)cc1 [Example 143, 4-[3-[4-(1-methylethyl)phenyl]propoxy]quinazoline] | 0 | - (- = 0-19% control at 400 ppm) | 0 | 0 | + (+ = 20-89% control at 400 ppm) | ++ (++ = 90-100% control at 400 ppm) | 0 | - (- = 0-19% control at 400 ppm) | ++ (++ = 90-100% control at 400 ppm) | 0 | 0 | 0 | 80
3 | Fc1ccc(-c2ccc(CCOc3ncnc4ccccc34)cc2)cc1 [Example 144, 4-[2-(4'-fluoro-1,1'-biphenyl)-4-ylethoxy]quinazoline] | 100 | +++ (+++ = 90-100% control at 100 ppm) | 100 | 40 | +++ (+++ = 90-100% control at 100 ppm) | +++ (+++ = 90-100% control at 100 ppm) | 0 | - (- = 0-19% control at 400 ppm) | +++ (+++ = 90-100% control at 100 ppm) |  | 60 | 100 | 40
4 | FC(F)(F)c1cccc(C(F)(F)F)c1CCOc1ncnc2ccccc12 [Example 145, 4-[2-[2,6-bis(trifluoromethyl)phenyl]ethoxy]quinazoline] | 0 | + (+ = 20-89% control at 400 ppm) | 80 | 0 | + (+ = 20-89% control at 400 ppm) | ++ (++ = 90-100% control at 400 ppm) | 0 | - (- = 0-19% control at 400 ppm) | +++ (+++ = 90-100% control at 100 ppm) | 80 | 80 | 0 | 0
5 | CC(C)Oc1cccc(CCOc2ncnc3ccccc23)c1 [Example 146, 4-[2-[3-(1-methylethoxy)phenyl]ethoxy]quinazoline] | 60 | ++ (++ = 90-100% control at 400 ppm) | 80 | 0 | ++ (++ = 90-100% control at 400 ppm) | +++ (+++ = 90-100% control at 100 ppm) | 0 | + (+ = 20-89% control at 400 ppm) | +++ (+++ = 90-100% control at 100 ppm) | 100 | 100 | 0 | 0
6 | COc1cc(CCOc2ncnc3ccccc23)ccc1O [Example 147] | 0 | +++ (+++ = 90-100% control at 100 ppm) | 0 | 0 | +++ (+++ = 90-100% control at 100 ppm) | +++ (+++ = 90-100% control at 100 ppm) | 0 | - (- = 0-19% control at 400 ppm) | - (- = 0-19% control at 400 ppm) | 0 | 50 | 0 | 0
7 | C=CC(CCc1ccccc1)Oc1ncnc2ccccc12 (centres unmarked) [Example 148, 4-[(1-benzyl-3-buten-2-yl)oxy]quinazoline] | 0 | + (+ = 20-89% control at 400 ppm) | 0 | 0 | ++ (++ = 90-100% control at 400 ppm) | ++ (++ = 90-100% control at 400 ppm) | 0 | - (- = 0-19% control at 400 ppm) | ++ (++ = 90-100% control at 400 ppm) |  |  |  | 
8 | CC(C)(C)c1ccc(CCCOc2ncnc3c(F)cccc23)cc1 [Example 149, 8-fluoro-4-[3-[4-(1,1-dimethylethyl)phenyl]propoxy]quinazoline] | 0 | - (- = 0-19% control at 400 ppm) | 0 | 0 | ++ (++ = 90-100% control at 400 ppm) | - (- = 0-19% control at 400 ppm) | 0 | - (- = 0-19% control at 400 ppm) | - (- = 0-19% control at 400 ppm) | 0 | 0 | 0 | 0
9 | c1ccc(Oc2ccc(CCCOc3ncnc4ccccc34)cc2)cc1 [Example 151, 4-[3-(4-phenoxyphenyl)propoxy]quinazoline] | 0 | - (- = 0-19% control at 400 ppm) | 0 | 0 | + (+ = 20-89% control at 400 ppm) | - (- = 0-19% control at 400 ppm) | 0 | - (- = 0-19% control at 400 ppm) | - (- = 0-19% control at 400 ppm) | 0 | 80 | 0 | 0
10 | CC(C)c1ccc(CCCOc2ncnc3c(F)cccc23)cc1 [Example 152, 8-fluoro-4-[3-[4-(1-methylethyl)phenyl]propoxy]quinazoline] | 60 | + (+ = 20-89% control at 400 ppm) | 80 | 0 | +++ (+++ = 90-100% control at 100 ppm) | + (+ = 20-89% control at 400 ppm) | 0 | - (- = 0-19% control at 400 ppm) | + (+ = 20-89% control at 400 ppm) | 90 | 40 | 0 | 0
11 | CCCCOc1ccc(CCOc2ncnc3c(F)cccc23)cc1 [Example 156, 8-fluoro-4-[2-(4-butoxyphenyl)ethoxy]quinazoline] | 80 | +++ (+++ = 90-100% control at 100 ppm) | 100 | 0 | +++ (+++ = 90-100% control at 100 ppm) | +++ (+++ = 90-100% control at 100 ppm) | 0 | - (- = 0-19% control at 400 ppm) | +++ (+++ = 90-100% control at 100 ppm) | 100 | 100 | 0 | 60
